This is an account of results in patent publication US12473304B2, “Heterocyclic PAD4 inhibitors” (BRISTOL-MYERS SQUIBB COMPANY, priority 2020, dated 2025).

The target of the experiment is human PAD4 (hPAD4) (Homo sapiens (Human), UniProt Q9UM07). Briefly: RFMS Human PAD4 Functional Assay 1. The settings on record: RFMS assay 1; 5 nM hPAD4, 250 μM BAEE substrate, 50 μM calcium, 37° C. Type of experiment: biochemical. An outline of the steps:
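Recombinant hPAD4 (5 nM) was preincubated with compound (top 50 μM, 0.5% DMSO) for 30 min at 37 °C, then reacted with 250 μM BAEE for 90 min at 37 °C in pH 7.5 HEPES buffer with 50 μM calcium and 5 μM TPEN. Product was derivatized with phenyl glyoxal and quantified by RapidFire MS.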

Sequence of human PAD4 (hPAD4) (Q9UM07 whole entry): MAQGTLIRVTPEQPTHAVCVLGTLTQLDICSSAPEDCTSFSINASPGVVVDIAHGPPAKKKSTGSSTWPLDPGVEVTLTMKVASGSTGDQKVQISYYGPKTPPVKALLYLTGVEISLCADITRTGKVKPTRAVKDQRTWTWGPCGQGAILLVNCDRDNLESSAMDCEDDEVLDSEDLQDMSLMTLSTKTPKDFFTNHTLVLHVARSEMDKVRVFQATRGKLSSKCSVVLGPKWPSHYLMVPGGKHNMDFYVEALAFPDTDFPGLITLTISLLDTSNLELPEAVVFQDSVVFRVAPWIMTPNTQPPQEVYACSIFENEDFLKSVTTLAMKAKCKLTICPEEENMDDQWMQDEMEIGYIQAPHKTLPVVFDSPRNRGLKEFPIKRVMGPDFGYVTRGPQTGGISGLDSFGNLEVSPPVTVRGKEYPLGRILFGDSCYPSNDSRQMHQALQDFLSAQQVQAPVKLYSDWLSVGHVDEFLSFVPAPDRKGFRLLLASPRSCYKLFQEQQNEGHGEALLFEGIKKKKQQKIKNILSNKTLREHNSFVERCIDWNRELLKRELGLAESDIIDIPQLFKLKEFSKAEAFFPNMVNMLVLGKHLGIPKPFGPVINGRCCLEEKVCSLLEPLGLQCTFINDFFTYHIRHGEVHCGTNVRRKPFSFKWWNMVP

As for `Cc1c(-c2cc3cccc(C4CCN(C(=O)C5CCCO5)CC4)c3n2CC2CC2)nn2cc(C(=O)N3C[C@H](N)C[C@@H](F)C3)ccc12` (mixture of isomers) [Example 463, ((3R,5R)-3-amino-5-fluoropiperidin-1-yl)(2-(1-(cyclopropylmethyl)-7-(1-(tetrahydrofuran-2-carbonyl)piperidin-4-yl)-1H-indol-2-yl)-3-methylpyrazolo[1,5-a]pyridin-6-yl)methanone], the IC50 is 100 nM. As to `COC(C)(C)C(=O)N1CCC(c2cc(F)cc3cc(-c4nn5cc(C(=O)N6CCC[C@@H](N)C6)ccc5c4C)n(CC4CC4)c23)CC1` [Example 493, (R)-1-(4-(2-(6-(3-Aminopiperidine-1-carbonyl)-3-methylpyrazolo[1,5-a]pyridin-2-yl)-1-(cyclopropylmethyl)-5-fluoro-1H-indol-7-yl)piperidin-1-yl)-2-methoxy-2-methylpropan-1-one], the IC50 was determined as 110 nM. The same measure for `Cc1c(-c2cc3ccnc(OCCn4ccnc4)c3n2CC2CC2)nn2cc(C(=O)N3C[C@H](N)C[C@@H](F)C3)ccc12` [Example 616, (2-(7-(2-(1H-Imidazol-1-yl)ethoxy)-1-(cyclopropylmethyl)-1H-pyrrolo[2,3-c]pyridin-2-yl)-3-methylpyrazolo[1,5-a]pyridin-6-yl)((3R,5R)-3-amino-5-fluoropiperidin-1-yl)methanone]: 20 nM; for `COc1cc(C(=O)N2CC3CCC2[C@@H]3N)cc2sc(-c3cc4ccc(C)cc4n3CC3CC3)c(C)c12` (stereo partly drawn) [Example 127, ((7R)-7-Amino-2-azabicyclo[2.2.1]heptan-2-yl)(2-(1-(cyclopropylmethyl)-6-methyl-1H-indol-2-yl)-4-methoxy-3-methylbenzo[b]thiophen-6-yl)methanone]: 98 nM; for `COCC(=O)N1CCC(c2cccc3cc(-c4nn5cc(C(=O)N6CCC[C@@H](N)C6)cc(F)c5c4C)n(CC4CC4)c23)CC1` [Example 429, (R)-1-(4-(2-(6-(3-Aminopiperidine-1-carbonyl)-4-fluoro-3-methylpyrazolo[1,5-a]pyridin-2-yl)-1-(cyclopropylmethyl)-1H-indol-7-yl)piperidin-1-yl)-2-methoxyethan-1-one]: 40 nM. Regarding `COc1cc(C(=O)N2CC3CCC2[C@@H]3N)cc2sc(-c3cc4ccc(-c5cccc(F)c5C)cc4n3CC3CC3)c(C)c12` (stereo partly drawn) [Example 128, ((7R)-7-Amino-2-azabicyclo[2.2.1]heptan-2-yl)(2-(1-(cyclopropylmethyl)-6-(3-fluoro-2-methylphenyl)-1H-indol-2-yl)-4-methoxy-3-methylbenzo[b]thiophen-6-yl)methanone], the IC50 came out at 4340 nM. The value for `Cc1c(-c2cc3ccc(N4CCC[C@@H](O)C4)nc3n2CC2CC2)nn2cc(C(=O)N3CC4CCC3[C@@H]4N)cc(F)c12` (stereo partly shown) [Example 51] was 109 nM; that for `Cc1c(-c2cc3cccc(C4CCN(C(=O)[C@@H](C)O)CC4)c3n2CC2CC2)nn2cc(C(=O)N3CC4CCC3[C@@H]4N)ccc12` (stereo partly drawn) [Example 473, (2R)-1-(4-(2-(6-((7R)-7-Amino-2-azabicyclo[2.2.1]heptane-2-carbonyl)-3-methylpyrazolo[1,5-a]pyridin-2-yl)-1-(cyclopropylmethyl)-1H-indol-7-yl)piperidin-1-yl)-2-hydroxypropan-1-one] was 3 nM. In the case of `Cc1c(-c2cc3cc(F)cc(C4CCN(C(=O)C5CCCO5)CC4)c3n2CC2CC2)nn2cc(C(=O)N3C[C@H](N)C[C@@H](F)C3)ccc12` (single isomer, unassigned) [Example 491], the IC50 is 1310 nM.

Take `Cc1c(-c2cc3ccc(N4CCC(N5CCOC5=O)CC4)cc3n2CC2CC2)nn2cc(C(=O)N3C[C@H](N)C[C@@H](F)C3)ccc12` [Example 357, 3-[1-(2-{6-[(3R,5R)-3-Amino-5-fluoropiperidine-1-carbonyl]-3-methylpyrazolo[1,5-a]pyridin-2-yl}-1-(cyclopropylmethyl)-1H-indol-6-yl)piperidin-4-yl]-l,3-oxazolidin-2-one]: the IC50 is 50 nM. The same measure for `Cc1c(-c2cc3cccnc3n2CC2CC2)oc2cc(C(=O)N3CC4CCC3[C@@H]4N)ccc12` (stereo partly drawn) [Example 164, ((7R)-7-Amino-2-azabicyclo[2.2.1]heptan-2-yl)(2-(1-(cyclopropylmethyl)-1H-pyrrolo[2,3-b]pyridin-2-yl)-3-methylbenzofuran-6-yl)methanone]: 625 nM; for `Cc1c(-c2cc3ccc(OC[C@@H]4CCC(=O)N4)nc3n2CC2CC2)nn2cc(C(=O)N3CC4CCC3[C@@H]4N)cc(F)c12` (stereo partly drawn) [Example 274, (5S)-5-{[(2-{6-[(7R)-7-Amino-2-azabicyclo[2.2.1]heptane-2-carbonyl]-4-fluoro-3-methylpyrazolo[1,5-a]pyridin-2-yl}-1-(cyclopropylmethyl)-1H-pyrrolo[2,3-b]pyridin-6-yl)oxy]methyl}pyrrolidin-2-one]: 270 nM. The value for `COc1cc(C(=O)N2CC3CCC2[C@@H]3N)cc2oc(-c3cc4ccc(-c5ccc(O)c(F)c5)cc4n3CC3CC3)c(C)c12` (stereo partly drawn) [Example 154, ((7R)-7-Amino-2-azabicyclo[2.2.1]heptan-2-yl)(2-(1-(cyclopropylmethyl)-6-(3-fluoro-4-hydroxyphenyl)-1H-indol-2-yl)-4-methoxy-3-methylbenzofuran-6-yl)methanone] was 1010 nM; that for `COc1cc(C(=O)N2CC3CCC2[C@@H]3N)cn2nc(-c3cc4ccccc4n3CC3CC3)c(C)c12` (stereo partly drawn) [Example 22, ((7R)-7-Amino-2-azabicyclo[2.2.1]heptan-2-yl)(2-(1-(cyclopropylmethyl)-1H-indol-2-yl)-4-methoxy-3-methylpyrazolo[1,5-a]pyridin-6-yl)methanone] was 2150 nM. The same measure for `COC1CCN(c2ccc3cc(-c4nn5cc(C(=O)N6C[C@H](N)C[C@@H](F)C6)ccc5c4C)n(CC4CC4)c3n2)CC1` [Example 87, ((3R,5R)-3-Amino-5-fluoropiperidin-1-yl)(2-(1-(cyclopropylmethyl)-6-(4-methoxypiperidin-1-yl)-1H-pyrrolo[2,3-b]pyridin-2-yl)-3-methylpyrazolo[1,5-a]pyridin-6-yl)methanone]: 2320 nM; for `COc1cc(C(=O)N2C[C@H](N)C[C@@H](F)C2)cn2nc(-c3cc4ccc(-c5ccc(NC(C)=O)nc5)cc4n3CC3CC3)c(C)c12` [Example 226, N-[5-(2-{6-[(3R,5R)-3-Amino-5-fluoropiperidine-1-carbonyl]-4-methoxy-3-methylpyrazolo[1,5-a]pyridin-2-yl}-1-(cyclopropylmethyl)-1H-indol-6-yl)pyridin-2-yl]acetamide]: 50 nM; for `Cc1c(-c2cc3cccc(OCC4CNC(=O)C4)c3n2CC2CC2)nn2cc(C(=O)N3C[C@H](N)C[C@@H](F)C3)cc(F)c12` (single isomer, unassigned) [Example 572]: 80 nM. `Cc1c(-c2cc3cccc(OCC4CC(=O)N(C)C4)c3n2CC2CC2)nn2cc(C(=O)N3C[C@H](N)C[C@@H](F)C3)ccc12` (single isomer, unassigned) [Example 577]: the IC50 came out at 150 nM. The same measure for `Cc1c(-c2cc3cccc(OCCn4cc(N)cn4)c3n2CC2CC2)nn2cc(C(=O)N3CCC[C@@H](N)C3)ccc12` [Example 582, (R)-(2-(7-(2-(4-Amino-1H-pyrazol-1-yl)ethoxy)-1-(cyclopropylmethyl)-1H-indol-2-yl)-3-methylpyrazolo[1,5-a]pyridin-6-yl)(3-aminopiperidin-1-yl)methanone]: 300 nM; for `Cc1c(-c2cc3ccc(N4CCC(O)CC4)nc3n2CC2CC2)nn2cc(C(=O)N3CC4CCC3[C@@H]4N)ccc12` (stereo partly drawn) [Example 77, ((7R)-7-Amino-2-azabicyclo[2.2.1]heptan-2-yl)(2-(1-(cyclopropylmethyl)-6-(4-hydroxypiperidin-1-yl)-1H-pyrrolo[2,3-b]pyridin-2-yl)-3-methylpyrazolo[1,5-a]pyridin-6-yl)methanone]: 77 nM. In the case of `COc1cc(C(=O)N2C[C@H](N)C[C@@H](F)C2)cn2nc(-c3cc4cc(F)cc(C5CCN(C(C)=O)CC5)c4n3CC3CC3)c(C)c12` [Example 482, 1-(4-(2-(6-((3R,5R)-3-Amino-5-fluoropiperidine-1-carbonyl)-4-methoxy-3-methylpyrazolo[1,5-a]pyridin-2-yl)-1-(cyclopropylmethyl)-5-fluoro-1H-indol-7-yl)piperidin-1-yl)ethan-1-one], the IC50 came out at 60 nM. The value for `COc1cc(C(=O)N2CC3CCC2[C@@H]3N)cc2sc(-c3cc4cccnc4n3CC3CC3)c(C)c12` (stereo partly drawn) [Example 119, ((7R)-7-Amino-2-azabicyclo[2.2.1]heptan-2-yl)(2-(1-(cyclopropylmethyl)-1H-pyrrolo[2,3-b]pyridin-2-yl)-4-methoxy-3-methylbenzo[b]thiophen-6-yl)methanone] was 84 nM.

For the compound `Cc1c(-c2cc3ccc(-c4ccc5[nH]ncc5c4)nc3n2CC2CC2)nn2cc(C(=O)N3CCC[C@@H](N)C3)ccc12` [Example 309, (3R)-1-{2-[1-(Cyclopropylmethyl)-6-(1H-indazol-5-yl)-1H-pyrrolo[2,3-b]pyridin-2-yl]-3-methylpyrazolo[1,5-a]pyridine-6-carbonyl}piperidin-3-amine], the IC50 worked out at 400 nM. The same measure for `Cc1c(-c2cc3cccc(C4CN(C(=O)[C@@H]5CCC[C@H](O)C5)C4)c3n2CC2CC2)nn2cc(C(=O)N3CCC[C@@H](N)C3)ccc12` [Example 532, ((R)-3-Aminopiperidin-1-yl)(2-(1-(cyclopropylmethyl)-7-(1-((1R,3S)-3-hydroxycyclohexane-1-carbonyl)azetidin-3-yl)-1H-indol-2-yl)-3-methylpyrazolo[1,5-a]pyridin-6-yl)methanone]: 1010 nM. On to `CO[C@H](C)C(=O)N1CCC(c2cccc3cc(-c4nn5cc(C(=O)N6CCC[C@@H](N)C6)cc(F)c5c4C)n(CC4CC4)c23)CC1` [Example 426, (R)-1-(4-(2-(6-((R)-3-Aminopiperidine-1-carbonyl)-4-fluoro-3-methylpyrazolo[1,5-a]pyridin-2-yl)-1-(cyclopropylmethyl)-1H-indol-7-yl)piperidin-1-yl)-2-methoxypropan-1-one], for which the IC50 stood at 50 nM.

Usually IC50 stands for the concentration that gives 50% inhibition.
